The subject of test [1] is Tel-VEGFR2-BaF3 cells (VEGFR2). Kind of test: Cell proliferation, CCK-8, Tel-VEGFR2-BaF3. Format: cell-based. As to conditions: Mus musculus, Tel-VEGFR2-BaF3, VEGFR2, 72 hours. An excerpt: In addition, in the present example, further uses: mouse P210/BaF3 (stably expressing P210 Bcr-Abl mutant gene), mouse Tel-ABL-BaF3 (stably expressing wild-type ABL kinase), mouse Tel-cKit-BaF3 (stably expressing C-KITwild-type kinase), mouse Tel-cKit/V559D-BaF3 (stably expressing C-KIT V559D mutant kinase), mouse Tel-cKit/V559D/V654A-BaF3 (stably expressing C-KIT V559D/V654A mutant kinase), mouse Tel-cKit/N822K-BaF3 (stably expressing C-KIT N822K mutant kinase), mouse Tel-cKit/V654A-BaF3 (stably expressing C-KIT V654A mutant kinase), mouse Tel-cKit/L567P-BaF3 (stably expressing C-KIT L567P mutant kinase), mouse Tel-cKit/T670I-BaF3 (stably expressing C-KIT T670I mutant kinase), mouse Tel-PDGFRα-BaF3 (stably expressing PDGFRα kinase), mouse Tel-PDGFRβ-BaF3 (stably expressing PDGFRβ kinase), mouse Tel-VEGFR2-BaF3 (stably expressing VEGFR2 kinase), mouse Tel-RET-BaF3 (stably expressing RET kinase). The above cell lines were all constructed by our laboratory according to the following method: the kinase region sequences of human P210 Bcr-Abl, ABL, C-KIT, C-KIT V559D, C-KIT V559D/V654A, C-KIT N822K, C-KIT V654A, C-KIT L567P, C-KIT T670I, PDGFRα, PDGFRβ, VEGFR2, RET were amplified respectively by PCR, inserted respectively into MSCV-Puro vectors harboring N-terminal TEL fragment and/or NPM fragment and/or TPR fragment (Clontech), then the vectors were stably transfected into mouse BaF3 cells by retrovirus methods and growth factor IL-3 was removed, eventually obtaining cell lines that are transferred protein (P210 Bcr-Abl, ABL, C-KIT, C-KIT V559D, C-KIT V559D/V654A, C-KIT N822K, C-KIT V654A, C-KIT L567P, C-KIT T670I, PDGFRα, PDGFRβ, VEGFR2, RET)-dependent.
The cells were incubated for 72 hours, and then the number of viable cells was quantified with a microplate reader by using CCK-8 Cell Viability Assay Kit (purchased from Bestbio Company, Shanghai, China) (CCK-8 can be reduced by dehydrogenase in living cells to a highly water-soluble yellow formazan product, and the amount of formazan produced is proportional to the number of living cells).

Test [2] concerns phosphorylation of Bcr-Abl kinase and pathway proteins in K562 cells. Kind of test: Effects on cell signaling pathways (phosphorylation), K562. Format: cell-based, human. As to conditions: K562, concentration up to 3 μM, 2 hours.
A further test concerns GIST-T1 cells. The experiment in a line: Apoptosis, PARP and Caspase 3 cleavage by Western Blot, GIST-T1. Format: cell-based, human. As to conditions: GIST-T1, 0.3 μM, 48 hours. The text has this:
(§1) The effects of different concentrations of drugs on protein cleavage of DNA repairase poly(ADP-ribose) polymerase (PARP) and Caspase (cysteinyl aspartate-specific proteinase) 3 at different periods of time were examined by Western Blot.
In general terms: A western blot detects proteins with antibodies after separation by electrophoresis.

In another test the test system is GIST-882 cells. Kind of test: Apoptosis, PARP and Caspase 3 cleavage by Western Blot, GIST-882. Format: cell-based, human. As to conditions: GIST-882, 0.3 μM, 72 hours.
From the text: as §1

We go through one molecule from patent US10793543B2, “Selective C-KIT kinase inhibitor” (PRECEDO PHARMACEUTICALS CO., LTD, priority 2016, dated 2020).

Each structure is given as a SMILES string.

By GI50 is commonly meant the concentration that inhibits growth by half. Read a low GI50 as more potent growth inhibition.

On to `Cc1ccc(NC(=O)c2cccc(C(F)(F)F)c2)cc1OC1CCN(C(=O)c2ccncc2)CC1` [Compound 4], for which it took 347 nM to inhibit growth in test [1] by half (GI50). In test [2], the “phosphorylation of Bcr-Abl kinase” value is reported as “no effect” and the “phosphorylation of proteins such as AKT, ErK” value is listed as “no effect”. Moreover, the “cleavage of PARP and Caspase 3” value in the test with GIST-T1 cells is recorded as “significant cleavage”. For the same molecule, the “cleavage of PARP and Caspase 3” value with GIST-882 cells is “significant cleavage”.
